Measurements as given in article PMC11672562, “Synthesis and Antibacterial Activity of New 6″-Modified Tobramycin Derivatives” (Antibiotics, 2024).
Values after ≈ are worked out from the molar mass of the structure shown.

Assays:
Assay type in all cases: cell-based
[1] = tested on: S. aureus ATCC 29213; test: MIC, broth microdilution, S. aureus ATCC 29213; details: Staphylococcus aureus, ATCC29213, Table 1, read-out: MIC
Method: (§1) The microbial strains used in this study were obtained from the collection of the Gause Institute of New Antibiotics. […] Storage was carried out in accordance with CLSI guidelines. Prior to experimentation, the bacterial strains were revived from cryopreservation by inoculating them onto trypticase soy agar (Becton, Dickinson, France) and incubating at (36 ± 1) °C for 16–24 h. Individual morphologically homogeneous colonies were then suspended in sterile physiological saline, and the turbidity of the suspension was adjusted to 0.5 McFarland units using a DEN-1 spectrophotometer (Biosan, Riga, Latvia), which corresponds to a concentration of 1.5 × 10^8 CFU/mL.
(§2) The samples were dissolved in sterile distilled water or dimethyl sulfoxide (DMSO), depending on the physicochemical properties of the compounds under investigation, to a concentration of 10,000 µg/mL.
(§3) Activity was evaluated by determining the minimum inhibitory concentration (MIC) values using the microdilution method in Mueller–Hinton Broth (Beckton and Dickinson, Le Pont-de-Claix, France), in accordance with the standard procedure for assessing the antimicrobial susceptibility of microorganisms.
(§4) The analysis was conducted in 96-well microtiter plates (Medpolymer, Saint Petersburg, Russia). The bacterial inoculum was introduced within 15 min of preparation. […] Microbial growth in the presence of the tested compounds was compared to the growth control (without exposure to the test samples). The MIC was defined as the lowest concentration at which visible microbial growth was inhibited.
(§5) The MIC values of the reference strains were required to fall within the acceptable ranges specified in [30], provided that standard assay conditions were maintained.

[2] = tested on: E. coli ATCC 25922; test: MIC, broth microdilution, E. coli ATCC 25922; details: for MIC: Escherichia coli, ATCC25922, Table 1, read-out: MIC
Method: as §1, §2, §3, §4, §5

[3] = tested on: E. coli JW5503; test: MIC, broth microdilution, E. coli JW5503; details: Escherichia coli, JW5503
Method: as §1, §2, §3, §4

[4] = tested on: P. aeruginosa ATCC 27853; test: MIC, broth microdilution, P. aeruginosa ATCC 27853; details: for MIC: Pseudomonas aeruginosa, ATCC27853, P. aeruginosa ATCC 27853, Table 1, read-out: MIC
Method: The microbial strains used in this study were obtained from the collection of the Gause Institute of New Antibiotics. […] Storage was carried out in accordance with CLSI guidelines.
as §3, §4, §5

[5] = tested on: M. smegmatis ATCC 607; test: MIC, broth microdilution, M. smegmatis ATCC 607; details: Mycolicibacterium smegmatis, ATCC607, Table 1, read-out: MIC
Method: as §1, §2, §3, §4

[6] = tested on: resistant clinical isolates of P. aeruginosa; test: MIC against resistant clinical isolates of P. aeruginosa; details: for MIC: Pseudomonas aeruginosa
Method: as §1, §2, §3, §4

[7] = tested on: E. coli JW5503 kanS; test: MIC in LB medium, E. coli JW5503 kanS; details: Escherichia coli, JW5503KANS, 18 h
Method: (§6) The determination of the minimum inhibitory concentration (MIC) was performed on three strains from the working collection of MSU: E. coli JW5503 [34], which lacked a kanamycin resistance cassette removed as per the method outlined in [39], and two strains derived from this strain through in vivo selection with kanamycin. The latter strains harbored P610T and P610L substitutions in the fusA gene. For the MIC determination, 100 μL (rows 2–11) and 200 μL (row 1) of LB liquid medium containing a 1:1000 dilution of overnight culture was added to each well of a 96-well transparent plate. Subsequently, 2 μL of a 50 μg/mL antibiotic solution was introduced into the first row, and serial two-fold dilutions were performed across each horizontal row, decreasing the antibiotic concentration incrementally. The final two rows were designated as controls: row 12 contained LB medium without cells or antibiotics, and row 11 contained cells without antibiotics. Following 18 h of incubation at 37 °C with constant agitation, the optical density at 590 nm (A590) was measured using a Victor X5 2030 spectrofluorometer (PerkinElmer, Waltham, MA, USA). The MIC was defined as the antibiotic concentration in the first well where no cell growth occurred. Each experiment was conducted in triplicate for all tested antibiotics.

[8] = tested on: E. coli JW5503 kanS EF-G P610T; test: MIC in LB medium, aminoglycoside-resistant mutant EF-G P610T; details: Escherichia coli, 18 h
Method: as §6

[9] = tested on: E. coli JW5503 kanS EF-G P610L; test: MIC in LB medium, aminoglycoside-resistant mutant EF-G P610L; details: Escherichia coli, 18 h
Method: as §6

[10] = tested on: E. coli JW5503 transformed with pJC27 plasmids; test: Translation accuracy reporter (mutant β-galactosidase, X-Gal staining); details: 4a,b, 6a,b and tobramycin 50 mg/mL; streptomycin, kanamycin 5 mg/mL; rifampicin 1 mg/mL
Text: It is known that tobramycin inhibits protein biosynthesis by the blocking of initiation and inducing translation errors. We have tested whether the new tobramycin derivatives 4a,b and 6a,b retain the ability to induce translation errors. This assay uses an E. coli strain with a plasmid construct that encodes beta-galactosidase in such a way that a functional protein is only synthesized in the presence of translation errors. If the mechanism of action of the antibiotic is related to the translation errors, we observe indigo blue staining along the edge of the inhibition zone because functional b-galactosidase degrades the substrate X-Gal. As a result, if the antibiotic causes translation errors, blue staining forms around the edge of the inhibition zone. […] According to this, an introduction at the 6″-position of the aminoalkylamino or guanidinoalkylamino residues of tobramycin retains an original mechanism of aminoglycoside’s antibacterial activity affecting the protein synthesis.
To qualitatively evaluate translation accuracy in the presence of antibiotics, E. coli JW5503 [34] (kanamycin resistance cassette removed as per) transformed with pJC27 plasmids was utilized. The plasmids encode the β-galactosidase gene containing a mutation in its active center (E537: GAA→GAC/GGG), alongside a control plasmid without the mutation. Active β-galactosidase synthesis could only occur if translation errors were introduced. Petri dishes (9 cm) containing 20 mL of solid LB agar (1.5%) supplemented with chloramphenicol (11.3 μg/mL) and X-Gal (80 μg/mL) were prepared. A secondary layer comprising 3.5 mL of LB agar (0.6%), supplemented with 11.3 μg/mL chloramphenicol and 0.5 mL of liquid culture (A600~1.0), was added and allowed to solidify. Antibiotics were applied to the plates in 1 μL aliquots at the following concentrations: 50 mg/mL for 4a, 4b, 6a, 6b, and tobramycin; 5 mg/mL for streptomycin and kanamycin; and 1 mg/mL for rifampicin. Plates were incubated at 37 °C for 18 h. […] Results were documented using a Samsung Galaxy Tab A71 camera.

[11] = P. aeruginosa strain, Table 2 column 3, head prints 27853
[12] = P. aeruginosa strain, Table 2 column 4, head prints 27853
[13] = P. aeruginosa strain, Table 2 column 5, head prints 27853
[14] = P. aeruginosa strain, Table 2 column 6, head prints 27853
[15] = P. aeruginosa strain, Table 2 column 7, head prints 27853
[16] = multidrug-resistant clinical isolates P. aeruginosa 21653 and P. aeruginosa 21571

| Structure (SMILES) | MIC [1] [µg/mL] | MIC [2] [µg/mL] | MIC of control antibiotic ([2]; quality control, must fall in acceptable ranges of [30]) [µg/mL] | MIC [3] [µg/mL] | MIC of control antibiotic ([4]; P. aeruginosa ATCC 27853, quality control, must fall in acceptable ranges of [30]) [µg/mL] | MIC [4] [µg/mL] | MIC [5] [µg/mL] | MIC [6, 11] [µg/mL] | MIC [6, 12] [µg/mL] | MIC [6, 13] [µg/mL] | MIC [6, 14] [µg/mL] | MIC [6, 15] [µg/mL] | resistance index ([6]; resistant clinical isolates of P. aeruginosa strains) | MIC [7] [µg/mL] | MIC [8] [µg/mL] | MIC [9] [µg/mL] | induction of translation errors (blue staining at edge of inhibition zone) [10] | MIC [6, 16] [µg/mL] |
| --- | --- | --- | --- | --- | --- | --- | --- | --- | --- | --- | --- | --- | --- | --- | --- | --- | --- | --- |
| NC[C@H]1O[C@H](O[C@H]2[C@H](O)[C@@H](O[C@H]3O[C@H](CO)[C@@H](O)[C@H](N)[C@H]3O)[C@H](N)C[C@@H]2N)[C@H](N)C[C@@H]1O [Tobramycin, tobramycin] | 0.06 (≈ 0.128 µM) | 0.25 (≈ 0.535 µM) | 0.25 to 1 | 1 (≈ 2.14 µM) | 0.25 to 1 | 0.5 (≈ 1.07 µM) | 0.06 (≈ 0.128 µM) | > 128 | > 128 | > 128 | > 32 | > 32 | > 256 | 5 (≈ 10.7 µM) | 20 (≈ 42.8 µM) | 40 (≈ 85.6 µM) | increase the misreading | – |
| N=C(N)NCCNC[C@H]1O[C@H](O[C@@H]2[C@@H](O)[C@H](O[C@H]3O[C@H](CN)[C@@H](O)C[C@H]3N)[C@@H](N)C[C@H]2N)[C@H](O)[C@@H](N)[C@@H]1O [Compound 6a, 6″-(2-Guanidinoethylamino)-6″-deoxytobramycin acetate] | 0.125 | 1 | – | 4 | – | 1 | 0.125 | 16 | 16 | > 32 | 32 | 32 | – | 10 | 40 | 40 | caused a blue coloring of the bacterial lawn | 16 to 32 |
| N=C(N)NCCCNC[C@H]1O[C@H](O[C@@H]2[C@@H](O)[C@H](O[C@H]3O[C@H](CN)[C@@H](O)C[C@H]3N)[C@@H](N)C[C@H]2N)[C@H](O)[C@@H](N)[C@@H]1O [Compound 6b, 6″-(3-Guanidinopropyl-1-amino)-6″-deoxytobramycin acetate] | 0.5 | 2 | – | 8 | – | 2 | 0.25 | 16 | 32 | > 32 | > 32 | > 32 | – | 40 | 80 | 80 | caused a blue coloring of the bacterial lawn | – |
| NCCNC[C@H]1O[C@H](O[C@@H]2[C@@H](O)[C@H](O[C@H]3O[C@H](CN)[C@@H](O)C[C@H]3N)[C@@H](N)C[C@H]2N)[C@H](O)[C@@H](N)[C@@H]1O [Compound 4a, 6″-(2-Aminoethyamino)-6″-deoxytobramycin acetate] | 0.125 | 0.5 | – | 2 | – | 1 | 0.125 | 16 | 32 | > 32 | > 32 | 32 | – | 10 | 40 | 40 | caused a blue coloring of the bacterial lawn | 16 to 32 |
| NCCCNC[C@H]1O[C@H](O[C@@H]2[C@@H](O)[C@H](O[C@H]3O[C@H](CN)[C@@H](O)C[C@H]3N)[C@@H](N)C[C@H]2N)[C@H](O)[C@@H](N)[C@@H]1O [Compound 4b, 6″-(3-Aminopropyl-1-amino)-6″-deoxytobramycin acetate] | 0.125 | 1 | – | 8 | – | 8 | 0.125 | 32 | 32 | > 32 | > 32 | > 32 | – | 20 | 80 | 80 | caused a blue coloring of the bacterial lawn | – |
